Measurements taken from publication PMC8248988, “A signal capture and proofreading mechanism for the KDEL-receptor explains selectivity and dynamic range in ER retrieval” (eLife, 2021).

Key:
HeLa S3 cells = assay: ER secretion assay, xDEL ligand secretion (Western blot for mScarlet); assay type: cell-based, human
Description: (§1) Figure 1. ER retrieval signal abundance and affinity are not correlated. (a) Sequence logos for ER resident proteins with C-terminal KDEL retrieval signals and variants thereof calculated using frequency or protein abundance ([Itzhak et al., 2017]; [Itzhak et al., 2016]). (b) Combined cellular concentrations of ER resident proteins with canonical KDEL, RDEL, and HDEL retrieval sequences in HeLa cells and mouse brain. (c) Competition binding assays for [^3H]-TAEHDEL and unlabelled TAEKDEL, TAERDEL, and TAEHDEL to the KDEL receptor. IC50 values for the competing peptides were used to calculate the apparent KDwith the Cheng-Prusoff equation ([Cheng and Prusoff, 1973]). (d) Endogenous KDEL receptor redistribution was measured in COS-7 cells in the absence (-ligand) or presence of K/R/H/A/DDEL (mScarlet-xDEL^sec). TGN46 was used as a Golgi marker. Scale bar is 10 µm. (e) The mean difference for K/R/H/A/DDEL comparisons against the shared no ligand control are shown as Cummings estimation plots. The individual data points for the fraction of KDEL receptor fluorescence in the Golgi are plotted on the upper axes with sample sizes and p values. Figure 1—source data 1. Source data for the ligand-induced KDELR receptor retrieval assays in Figure 1e. Figure 1—figure supplement 1. Abundance of ER resident proteins and chaperones in human cells and mouse brain. (a) The mean concentration of ER resident chaperones with the indicated ER retrieval sequence variant is plotted in the bar graph ([Itzhak et al., 2017]; [Itzhak et al., 2016]). (b) Combined cellular concentrations of ER resident proteins with canonical KDEL, RDEL, and HDEL retrieval sequences in HeLa cells and mouse brain. (c) The mean concentration of KDELR1, KDELR2, and KDELR3 in HeLa cells and mouse brain is plotted in the bar graph ([Itzhak et al., 2017]; [Itzhak et al., 2016]). (d) Cells and media collected from HeLa S3 cells expressing the xDEL variants (mScarlet-xDEL^sec) indicated in the figure were Western blotted for resident ER chaperones and KDELR. (e) A bar graph of xDEL secretion showing mean ± SEM (n = 3). (f). Endogenous ER chaperone secretion was measured by western blotting after challenge with different retrieval signals, and plotted as a bar graph showing mean ± SEM (n = 3). Figure 1—figure supplement 1—source data 1. Source data for analysis of ER protein levels in Figure 1—figure supplement 1a and c. Figure 1—figure supplement 1—source data 2. […] (a) Distribution of human KDELR1 and (b) KDELR2 was measured in COS-7 cells in the absence (-ligand) or presence of K/R/H/A/DDEL retrieval signals (K/R/H/A/DDEL^sec). […] The fraction of KDEL receptor localised to the Golgi was measured before (no ligand) and after challenge with different retrieval signals as indicated. […]

ERP44 = assay: ER chaperone secretion assay, ERP44; assay type: cell-based, human
Description: as §1, with “(b) Combined cellular concentrations of ER resident proteins with canonical KDEL, RDEL, and HDEL retrieval sequences in HeLa cells and mouse brain. (c) The mean concentration of KDELR1, KDELR2, and KDELR3 in HeLa cells and mouse brain is plotted in the bar graph ([Itzhak et al., 2017]; [Itzhak et al., 2016]). (d) Cells and media collected from HeLa S3 cells expressing the xDEL variants (mScarlet-xDEL^sec) indicated in the figure were Western blotted for resident ER chaperones and KDELR. (e) A bar graph of xDEL secretion showing mean ± SEM (n = 3). (f).” left out, “3).” for “3). Figure 1—figure supplement 1—source data 1. Source data for analysis of ER protein levels in Figure 1—figure supplement 1a and c. Figure 1—figure supplement 1—source data 2.”

Which results are given for “ADEL [pcDNA3.1 hGHss-mScarlet-H. sapiens BiP639-654K651A (ADEL^SEC), secreted mScarlet fusion with human BiP C-terminus, ADEL signal]”?
retention or secretion of the xDEL ligand (in words) (HeLa S3 cells; HeLa S3 cells): mostly secreted; xDEL secretion (mScarlet) (HeLa S3 cells; mean, HeLa S3, 24 hr, cells and media Western blot densitometry): 51.6; xDEL secretion (mScarlet) (HeLa S3 cells; replicate 1): 33.9; xDEL secretion (mScarlet) (HeLa S3 cells; replicate 2): 69.2; ERP44 secretion after challenge with retrieval signal (ERP44; mean, HeLa S3, 24 hr, Western blot densitometry): 11.8; ERP44 secretion after challenge with retrieval signal (ERP44; replicate 1): 8.7; ERP44 secretion after challenge with retrieval signal (ERP44; replicate 2): 14.9
